# Test results reported in paper PMC9138505, “Small Molecule 20S Proteasome Enhancer Regulates MYC Protein Stability and Exhibits Antitumor Activity in Multiple Myeloma” (Biomedicines, 2022).
# Values joined by “and” are separate entries in the source; they are usually repeats but may differ in a detail not shown here. Equal values may be shown once.
# Test system: RPMI-8226 cells
# Experiment: Gene expression profiling, NanoString nCounter PanCancer Pathways Panel, ROSALIND analysis
# Assay type: cell-based, human
# Conditions: RPMI-8226, TCH-165 samples 1-3
# Protocol: RPMI-8226 cells were treated with vehicle or TCH-165 (10 μM) for 4 h. Total RNA was obtained using the mirVana miRNA Isolation Kit, with phenol (Thermofisher Scientific; AM1560; Waltham, MA, USA). Total RNA was quantified by Qubit (Thermofisher Scientific; Q32855; Waltham, MA, USA). and gene expression was evaluated against the nCounter® PanCancer Pathways Panel^TM according to the standard NanoString protocol.
# Data were analyzed by ROSALIND® [36] with a hyperscale architecture developed by ROSALIND, Inc. (San Diego, CA, USA). Normalization, fold changes and p-values were calculated using criteria provided by NanoString. ROSALIND follows the nCounter® Advanced Analysis protocol of dividing counts within a lane by the geometric mean of the normalizer probes from the same lane. Housekeeping probes to be used for normalization are selected based on the geNorm algorithm, as implemented in the NormqPCR R library. Fold changes and p-values are calculated using the fast method as described in the nCounter Advanced Analysis 2.0 User Manual. The p-value adjustment is performed using the Benjamini–Hochberg method of estimating false discovery rates (FDR). Clustering of genes for the final heatmap of differentially expressed genes was done using the PAM (Partitioning Around Medoids) method using the fpc R library. Hypergeometric distribution was used to analyze the enrichment of pathways, gene ontology, domain structure and other ontologies. The topGO R library was used to determine local similarities and dependencies between GO terms in order to perform Elim pruning correction. Several database sources were referenced for enrichment analysis, including Interpro [40], NCBI [41], MSigDB [42, 43], REACTOME [44], WikiPathways. Enrichment was calculated relative to a set of background genes relevant to the experiment.
structure (smiles),measurement,value
CCOC(=O)[C@]1(c2ccccc2)N=C(c2ccc(OC)cc2)N(Cc2ccccc2)[C@@H]1c1ccc(NCc2ccccc2)cc1 [TCH-165],PDGFA normalized gene expression,6.283 and 6.012 and 6.0068
same,PDGFB normalized gene expression,4.649 and 4.855 and 4.437
same,PDGFRA normalized gene expression,4.401 and 4.3768 and 3.876
same,PDGFRB normalized gene expression,4.86 and 4.614 and 4.483
same,PGF normalized gene expression,5.308 and 4.817 and 4.238
same,PIK3CA normalized gene expression,10.0553 and 10.0309 and 10.0578
same,PIK3CB normalized gene expression,6.955 and 6.836 and 6.778
same,PIK3CD normalized gene expression,5.445 and 5.636 and 4.975
same,PIK3CG normalized gene expression,8.477 and 8.424 and 8.357
same,PIK3R1 normalized gene expression,7.74 and 7.729 and 7.668
same,PIK3R3 normalized gene expression,10.4707 and 10.3784 and 10.3886
same,PIK3R5 normalized gene expression,8.581 and 8.361 and 8.483
same,PIM1 normalized gene expression,9.677 and 9.621 and 9.503
same,PITX2 normalized gene expression,3.723 and 3.817 and 3.39
same,PKMYT1 normalized gene expression,9.448 and 9.494 and 9.482
same,PLA1A normalized gene expression,4.571 and 4.7789 and 4.5707
same,PLA2G2A normalized gene expression,5.723 and 5.0613 and 5.549
same,PLA2G3 normalized gene expression,5.955 and 5.7789 and 5.549
same,PLA2G4A normalized gene expression,9.821 and 9.8479 and 9.947
same,PLA2G4C normalized gene expression,3.986 and 4.324 and 4.0682
same,PLA2G5 normalized gene expression,4.208 and 4.855 and 5.0068
same,PLA2G10 normalized gene expression,4.793 and 4.569 and 4.9095
same,PLAT normalized gene expression,5.101 and 4.855 and 4.805
same,PLAU normalized gene expression,5.758 and 5.452 and 5.461
same,PLCB1 normalized gene expression,7.331 and 7.169 and 7.1906
same,PLCB4 normalized gene expression,8.221 and 8.1619 and 8.141
same,PLCE1 normalized gene expression,3.571 and 3.962 and 3.291
same,PLCG2 normalized gene expression,7.802 and 7.657 and 7.688
same,PLD1 normalized gene expression,4.723 and 4.524 and 4.0068
same,PML normalized gene expression,9.305 and 9.103 and 9.111
same,POLB normalized gene expression,8.277 and 8.166 and 8.094
same,POLD1 normalized gene expression,6.955 and 6.97 and 7.225
same,POLE2 normalized gene expression,7.876 and 7.784 and 7.712
same,POLR2D normalized gene expression,10.3534 and 10.1749 and 10.2456
same,POLR2H normalized gene expression,9.625 and 9.653 and 9.593
same,POLR2J normalized gene expression,8.023 and 8.1988 and 7.922
same,PPARG normalized gene expression,5.308 and 4.093 and 4.841
same,PPARGC1A normalized gene expression,5.156 and 4.855 and 4.5707
same,PPP2CB normalized gene expression,9.355 and 9.581 and 9.539
same,PPP2R1A normalized gene expression,10.9153 and 10.8543 and 10.8588
same,PPP2R2B normalized gene expression,5.208 and 3.891 and 3.876
same,PPP2R2C normalized gene expression,4.401 and 4.154 and 4.653
same,PPP3CA normalized gene expression,8.9359 and 8.866 and 8.858
same,PPP3CB normalized gene expression,6.793 and 6.5 and 6.673
same,PPP3CC normalized gene expression,7.784 and 7.44 and 7.5547
same,PPP3R1 normalized gene expression,12.1844 and 12.0743 and 12.0585
same,PRDM1 normalized gene expression,9.955 and 9.965 and 9.796
same,PRKAA2 normalized gene expression,5.445 and 4.927 and 5.238
same,PRKACA normalized gene expression,10.3765 and 10.3832 and 10.3727
same,PRKACB normalized gene expression,9.149 and 8.936 and 8.955
same,PRKACG normalized gene expression,5.955 and 4.996 and 4.975
same,PRKAR1B normalized gene expression,7.319 and 7.093 and 7.231
same,PRKAR2A normalized gene expression,10.8995 and 10.8368 and 10.7359
same,PRKAR2B normalized gene expression,4.924 and 5.5 and 5.291
same,PRKCA normalized gene expression,5.61 and 5.739 and 5.858
same,PRKCB normalized gene expression,5.101 and 5.5 and 5.1271
same,PRKCG normalized gene expression,3.208 and 3.154 and 2.805
same,PRKDC normalized gene expression,10.6509 and 10.6549 and 10.5707
same,PRKX normalized gene expression,6.924 and 6.699 and 6.769
same,PRL normalized gene expression,5.156 and 4.7789 and 4.483
same,PRLR normalized gene expression,4.401 and 4.324 and 4.483
same,PROM1 normalized gene expression,5.488 and 4.817 and 5.1271
same,PTCH1 normalized gene expression,6.423 and 6.1393 and 6.303
same,PTEN normalized gene expression,10.0245 and 10.0523 and 10.0068
same,PTPN11 normalized gene expression,10.4091 and 10.3872 and 10.2825
same,PTPRR normalized gene expression,5.156 and 5.27 and 4.876
same,PTTG2 normalized gene expression,10.7067 and 10.7173 and 10.7103
same,RAC1 normalized gene expression,10.809 and 10.6987 and 10.6841
same,RAC2 normalized gene expression,9.175 and 9.2187 and 9.226
same,RAC3 normalized gene expression,7.412 and 7.085 and 7.42
same,RAD21 normalized gene expression,12.3086 and 12.2658 and 12.2586
same,RAD50 normalized gene expression,8.5605 and 8.589 and 8.653
same,RAD51 normalized gene expression,8.142 and 8.041 and 8.102
same,RAD52 normalized gene expression,7.767 and 7.625 and 7.698
same,RAF1 normalized gene expression,10.0005 and 9.906 and 9.965
same,RASA4 normalized gene expression,8.175 and 8.284 (2×)
same,RASAL1 normalized gene expression,7.884 and 7.864 and 8.034
same,RASGRF1 normalized gene expression,5.355 and 5.27 and 5.1271
same,RASGRF2 normalized gene expression,4.401 and 4.154 and 4.39
same,RASGRP1 normalized gene expression,3.571 and 3.27 and 2.805
same,RASGRP2 normalized gene expression,5.355 and 4.7789 and 5.184
same,RB1 normalized gene expression,10.4258 and 10.2516 and 10.3605
same,RBX1 normalized gene expression,11.212 and 11.2858 and 11.2821
same,RELA normalized gene expression,9.023 and 9.033 and 8.932
same,RELN normalized gene expression,3.208 and 3.154 and 2.653
same,RET normalized gene expression,4.488 and 3.154 and 4.1271
same,RFC3 normalized gene expression,10.5818 and 10.4756 and 10.5331
same,RFC4 normalized gene expression,10.5805 and 10.6642 and 10.6099
same,RHOA normalized gene expression,10.324 and 10.1814 and 10.1759
same,RIN1 normalized gene expression,5.308 and 5.324 and 5.211
same,RNF43 normalized gene expression,5.044 and 4.569 and 4.528
